Reference: patent US8450304B2, “4-azetidinyl-1-heteroaryl-cyclohexanol antagonists of CCR2” (Janssen Pharmaceutica N.V., priority 2008, dated 2013)

Assays:
CCR2 = biological target: T1, CCR2 (Homo sapiens, UniProt P41597); experiment: MCP-1 Receptor Binding Assay in THP-1 Cells; conditions: 0.5 nM 125I labeled MCP-1, 2 hours at 30° C., read-out: Inhibition of MCP-1 Binding IC50, CCR2 Binding
T1 construct: host or cells: THP-1 (human monocytic cell line), whole cells
Protocol: Compounds of the invention were subjected to various representative biological tests. […] MCP-1 Receptor Binding Assay in THP-1 Cells
Human monocytic cell line THP-1 cells were obtained from American Type Culture Collection (Manassas, Va., USA). […] The cell density was maintained […].
1 μM cold MCP-1 was used for nonspecific binding.

[1] = tested on: MCP-1-induced monocyte recruitment to airway; experiment: MCP-1-induced monocyte recruitment to airway of mice; type: in vivo; conditions: 10 mpk, p.o. bid; 4 μg MCP-1 intranasally; after 48 h
From the text: (§1) Mouse CCR2 knock-out/human CCR2 knock-in mice were generated using targeted 129Sv/Evbrd embryonic stem cell clones injected into C57BL/6 mice. Expression of the hCCR2 transcript was confirmed by quantitative reverse transcription-polymerase chain reaction performed on spleen and blood total RNA from homozygous hCCR2 knock-in mice. Backcrossing into C57BL/6 genetic background continued to the eighth generation. Transgenic mice were housed in a specific-pathogen-free, temperature-controlled facility that maintained a 12-hour light/12-hour dark cycle. Mice had free access to water and food. Experimental procedures were carried out in accordance with institutional standards for animal care and were approved by the institute's animal care and use committee.
Animals were orally treated with vehicle or CCR2 antagonists at 3, 10, and 30 mg/kg po bid). One hour later, the animals were intranasally dosed with 4 μg of MCP-1 in sterile saline. The animals were orally treated twice daily with vehicle or CCR2 antagonists. After 48 h, mice were euthanized by intraperitoneal injection of anesthesia solution (Sleepaway-Sodium pentobarbital). […] Percent inhibition was calculated by comparing the change in number of total leukocyte counts (including monocytes/macrophages and lymphocytes) of compound-treated mice to the vehicle-treated mice. […]

[2] = tested on: thioglycollate-induced peritonitis; experiment: Thioglycollate-induced peritonitis in mice; type: in vivo; conditions: 10 mpk, p.o. bid; 72-hour time point; leukocytes in peritoneal lavage vs vehicle
From the text: as §1
Animals were orally dosed with vehicle or CCR2 antagonists at 3, 10, 30 and 100 mg/kg bid). One hour later, the animals were intraperiponeally injected with sterile thioglycollate (25 mL/kg, ip, Sigma) for induction of peritonitis. Animals were orally treated twice daily with vehicle or CCR2 antagonists. At 72-hour time point, perinoteal cavities were lavaged with 10 mL of sterile saline. […] Percent inhibition of the thioglycollate-induced peritonitis was calculated by comparing the change in number of leukocytes of CCR2 antagonist treated mice to the vehicle-treated mice.

cell migration = experiment: Murine in vivo cell migration assay; set-up: species or system mice; conditions: 10 mpk, P.O. bid; human MCP-1 on small bowel serosa; 24 hours
From the text: as §1
Animals were orally dosed with vehicle or CCR2 antagonists at 3, 10 and 30 mg/kg bid. Animals underwent anesthesia and laparotomy. A distal loop of small bowel (5 cm in length) was gently eventrated onto moist sterile gauze. Synthetic human MCP-1 ([…] sterile PBS) or PBS alone was administered drop-wise onto the serosa of the eventrated loop. A suture knot was placed into the mesentery to mark the terminus of the treated area. Twenty-four hours later, the animal was sacrificed and the segment of bowel plus the adjacent region was removed. The tissue was opened along the mesenteric border, pinned flat and the mucosa removed. […]

[3] = tested on: total BAL leukocyte count (and eosinophil count); experiment: Mouse model of allergic asthma; type: in vivo; conditions: 10 mpk, p.o. bid; OVA-sensitized mice; BAL on day 21
From the text: as §1, with “Experimental procedures were carried out in accordance with institutional standards for animal care and were approved by the institute's animal care and use committee.” left out
Animals were sensitized by intraperitoneal injection of 10 μg chicken egg albumin (OVA) absorbed to 1 mg Imject® in 100 μL phosphate-buffered saline (PBS) on days 0 and 5. […] On day 21, 2 hours post the last dose of CCR2 compounds, bronchial reactivity to aerosolized methacholine was measured using a Buxco whole body plethysmograpgh. […] Bronchoalveolar lavage fluid was collected (1 mL) and total cells counted. The numbers of eosinophils, lymphocytes, monocytes and neutrophils were determined using cytospin analysis after Giemsa staining (Hema Tek 2000). Percent inhibition of total BAL leukocyte count (and eosinophil count) was calculated by comparing the compound-treated mice with vehicle-treated mice. […]

[4] = High-fat diet induced obesity and insulin resistance in mice; type: in vivo; conditions: 10 mpk, p.o. bid; high-fat diet obese mice; 40 days treatment
From the text: as §1, with “Experimental procedures were carried out in accordance with institutional standards for animal care and were approved by the institute's animal care and use committee.” left out
Obesity was induced by a high-fat diet that derived approximately 60% calories from lipids (D-12492; Research Diets Inc.) in animals for 10-24 weeks at age of 7 weeks. […] Body weight and food intake and fasting blood glucose levels were monitored. Body mass was determined by a NMR analyzer (Burker MiniSpec). […] After an intraperitoneal bolus injection of recombinant human insulin (1.5 U/kg), blood glucose concentrations were measured using a Glucometer before and 15, 30, 45, 60, 90 and 120 minutes after injection. […] Blood glucose concentrations were measured before and after 15, 30, 60, 90, 120 minutes after an oral dose of glucose dissolved in water (1 g/kg). Energy expenditure analysis was monitored by a complete laboratory animal monitor system. […]

T1 sequence (P41597 whole entry): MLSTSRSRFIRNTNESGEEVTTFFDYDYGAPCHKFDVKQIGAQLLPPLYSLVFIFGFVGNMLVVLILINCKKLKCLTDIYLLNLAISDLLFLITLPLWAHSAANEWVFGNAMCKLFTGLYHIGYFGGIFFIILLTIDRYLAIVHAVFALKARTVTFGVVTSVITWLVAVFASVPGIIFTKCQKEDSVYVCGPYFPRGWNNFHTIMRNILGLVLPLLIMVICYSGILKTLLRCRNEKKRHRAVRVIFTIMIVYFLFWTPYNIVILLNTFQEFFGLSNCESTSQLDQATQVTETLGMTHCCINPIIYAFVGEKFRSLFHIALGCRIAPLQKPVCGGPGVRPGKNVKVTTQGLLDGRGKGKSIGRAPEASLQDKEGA

Compound	IC50 (CCR2) [nM]	further results
COc1ccc(C2(O)CCC(N3CC(NC(=O)CNC(=O)c4cccc(Cl)c4)C3)CC2)cn1 (stereo not drawn) [Example 24, 3-Chloro-N-({1-[4-hydroxy-4-(6-methoxy-pyridin-3-yl)-cyclohexyl]-azetidin-3-ylcarbamoyl}-methyl)-benzamide]	1600	
O=C(CNC(=O)c1cccc(C(F)(F)F)c1)NC1CN(C2CCC(O)(c3cncs3)CC2)C1 (stereo not drawn) [Example 40, N-{[1-(4-Hydroxy-4-thiazol-5-yl-cyclohexyl)-azetidin-3-ylcarbamoyl]-methyl}-3-trifluoromethyl-benzamide]		percent inhibition of total leukocyte counts in BAL [1]: > 50%; inhibition of thioglycollate-induced peritonitis [2]: > 50%; blocking cell migration (efficacious if the inhibition of cell migration reaches 30% compared with vehicle-treated animals) (cell migration): efficacious; reduction of cell count (efficacious if the inhibition reaches 30%) [3]: efficacious; reduce body weight (percent of weight loss vs vehicle-treated mice) [4]: > 8%
O=C(CNC(=O)c1cccc(C(F)(F)F)c1)NC1CN(C2CCC(O)(c3cnc(N4CCCC4)s3)CC2)C1 (stereo not drawn) [Example 51, N-({1-[4-Hydroxy-4-(2-pyrrolidin-1-yl-thiazol-5-yl)-cyclohexyl]-azetidin-3-ylcarbamoyl}-methyl)-3-trifluoromethyl-benzamide]	3300	
CC(C)(C)Oc1ncc(C2(O)CCC(N3CC(NC(=O)CNC(=O)c4cccc(C(F)(F)F)c4)C3)CC2)s1 (stereo not drawn) [Example 54, N-({1-[4-(2-tert-Butoxy-thiazol-5-yl)-4-hydroxy-cyclohexyl]-azetidin-3-ylcarbamoyl}-methyl)-3-trifluoromethyl-benzamide]	280	
CN(C)Cc1ncc(C2(O)CCC(N3CC(NC(=O)CNC(=O)c4cccc(C(F)(F)F)c4)C3)CC2)s1 (stereo not drawn) [Example 56, N-({1-[4-(2-Dimethylaminomethyl-thiazol-5-yl)-4-hydroxy-cyclohexyl]-azetidin-3-ylcarbamoyl}-methyl)-3-trifluoromethyl-benzamide]	310	
O=C(CNC(=O)c1cccc(C(F)(F)F)c1)NC1CN(C2CCC(O)(c3cc(Br)cs3)CC2)C1 (stereo not drawn) [Example 60, N-({1-[4-(4-Bromo-thiophen-2-yl)-4-hydroxy-cyclohexyl]-azetidin-3-ylcarbamoyl}-methyl)-3-trifluoromethyl-benzamide]	230	
O=C(CNC(=O)c1cccc(C(F)(F)F)c1)NC1CN(C2CCC(O)(c3nc4ccccc4o3)CC2)C1 (stereo not drawn) [Example 63, N-{[1-(4-Benzooxazol-2-yl-4-hydroxy-cyclohexyl)-azetidin-3-ylcarbamoyl]-methyl}-3-trifluoromethyl-benzamide]	1000	
O=C(CNC(=O)c1cc(F)cc(C(F)(F)F)c1)NC1CN(C2CCC(O)(c3cncs3)CC2)C1 (stereo not drawn) [Example 65, 3-Fluoro-N-{[1-(4-hydroxy-4-thiazol-5-yl-cyclohexyl)-azetidin-3-ylcarbamoyl]-methyl}-5-trifluoromethyl-benzamide]	70	
O=C(CNC(=O)c1cc(C(F)(F)F)ccc1C(F)(F)F)NC1CN(C2CCC(O)(c3nccs3)CC2)C1 (stereo not drawn) [Example 68, N-{[1-(4-Hydroxy-4-thiazol-2-yl-cyclohexyl)-azetidin-3-ylcarbamoyl]-methyl}-2,5-bis-trifluoromethyl-benzamide]	500	

Now from value to compound, other results behind:

IC50 (CCR2) [nM]	Compound	further results
560	O=C(CNC(=O)c1cccc(C(F)(F)F)c1)NC1CN(C2CCC(O)(c3cnc(O)s3)CC2)C1 (stereo not drawn) [Example 48, N-({1-[4-Hydroxy-4-(2-hydroxy-thiazol-5-yl)-cyclohexyl]-azetidin-3-ylcarbamoyl}-methyl)-3-trifluoromethyl-benzamide]	
260	Nc1ncc(C2(O)CCC(N3CC(NC(=O)CNC(=O)c4cccc(C(F)(F)F)c4)C3)CC2)s1 (stereo not drawn) [Example 49, N-({1-[4-(2-Amino-thiazol-5-yl)-4-hydroxy-cyclohexyl]-azetidin-3-ylcarbamoyl}-methyl)-3-trifluoromethyl-benzamide]	
560	CN(C)c1ncc(C2(O)CCC(N3CC(NC(=O)CNC(=O)c4cccc(C(F)(F)F)c4)C3)CC2)s1 (stereo not drawn) [Example 50, N-({1-[4-(2-Dimethylamino-thiazol-5-yl)-4-hydroxy-cyclohexyl]-azetidin-3-ylcarbamoyl}-methyl)-3-trifluoromethyl-benzamide]	
73	COc1ncc(C2(O)CCC(N3CC(NC(=O)CNC(=O)c4cccc(C(F)(F)F)c4)C3)CC2)s1 (stereo not drawn) [Example 52, N-({1-[4-Hydroxy-4-(2-methoxy-thiazol-5-yl)-cyclohexyl]-azetidin-3-ylcarbamoyl}-methyl)-3-trifluoromethyl-benzamide]	
1200	N#CNc1ncc(C2(O)CCC(N3CC(NC(=O)CNC(=O)c4cccc(C(F)(F)F)c4)C3)CC2)s1 (stereo not drawn) [Example 55, N-({1-[4-(2-Cyanoamino-thiazol-5-yl)-4-hydroxy-cyclohexyl]-azetidin-3-ylcarbamoyl}-methyl)-3-trifluoromethyl-benzamide]	
